Values after ≈ are worked out from the molar mass of the structure shown.

Consider 20 compounds from US8545876B1, “Modified drugs for use in liposomal nanoparticles” (The University of British Columbia, priority 2008, dated 2013).

Data set [1] in a line: Kinetic aqueous solubility of docetaxel derivatives in acetate buffer. Conditions: for solubility: kinetic from dmso stock.
Protocol: An aliquot was diluted 10-fold with 10 mM acetate buffer (pH 5) and the pH was checked and re-adjusted as necessary to reach pH 5. Alternatively, 10 mg of each compound was weighed into a glass vial, and 2 mL of 10 mM acetate buffer (pH 5) was added to the compound, followed by sonication of the suspension for minutes. The precipitate was then removed using Microcon MY100 filters (MW cut-off 100,000 Da) and the filtrate analyzed by UPLC-UV for drug content. The measured solubilities are kinetic solubilities determined under non-equilibrium conditions.
The conditions of data set [2]: cited from earlier work.
Data set [3] can be described thus: Chemical (hydrolytic) stability in buffered aqueous solutions. The note with it: 24 hour incubation in pH 4 buffer, 37° C. The class given is physicochemical. Here is the method:
(§1) The chemical stability of the docetaxel derivatives was determined in aqueous solutions at different pH values and temperatures, and in biological media (mouse plasma). Aliquots of the docetaxel derivatives in acetonitrile were mixed with buffered citrate/HEPES (10 mM/10 mM) solutions at pH 4.0 and 7.5, or in mouse plasma in 1 mL glass HPLC sample vials sealed with Teflon-lined caps (final volume 0.25 ml, final docetaxel derivative concentration 50 µg/ml). Drug stability was determined 1, 4 and 24 hrs after incubation at 37° C. by UPLC-UV. At the indicated time points, a 3-fold excess of methanol/0.1% TFA was added to the sample. Citrate/HEPES buffered samples were analyzed by UHPLC as described above. For plasma samples, proteins precipitated by the addition of methanol/0.1% TFA pelleted by centrifugation at 14,000×g and supernatants were analyzed for the drug derivatives. Heparanized mouse plasma was diluted to 50% with 100 mM sodium-phosphate buffer to keep the pH constant throughout the experiment.
(§2) To be suitable for formulation in LN, derivatives must be stable at pH 4 (the pH present inside the LN carrier). In addition, prodrug derivatives should readily form the active drug under physiological conditions (e.g., at pH 7.4 and/or in the presence of endogenous enzymes) once released from the LN. […] TD1-3 and TD7 were selected for loading into LN and testing of such LN for drug release in vitro.

Data set [4] is described as follows: Stability in mouse plasma. It is filed as in vitro ADME. The note with it: 24 hour incubation in mouse plasma, 37° C. Here is the method:
as §1, §2

A short description of data set [5]: Chemical (hydrolytic) stability in buffered aqueous solutions. The note with it: 24 hour incubation in pH 7.4 buffer, 37° C. It is filed as physicochemical.
A short description of data set [6]: In vitro release of docetaxel derivatives from LN in mouse plasma. It is filed as in vitro ADME. The note with it: 37° C., same prodrug-to-lipid ratio. As for the experimental part: In vitro release of docetaxel derivatives from LN was assessed in mouse plasma. Drug retention was determined by comparison of the initial prodrug-to-lipid ratio with the prodrug-to-lipid ratios found at different time points. […] LN formulations were mixed with mouse plasma at a final lipid concentration of 0.75 mg/ml, followed by incubation at 37° C. At various time points, aliquots were taken and run over Sephadex G-50 spin columns to remove the unentrapped prodrug (Pick, Arch. Biochem. Biophys., 212:186-194 (1981)). The derivative and lipid concentrations in the eluates were determined by UHPLC and liquid scintillation counting, respectively.

[7] abbreviates: 10 mM acetate buffer with 10% (v/v) ethanol, pH 5, aqueous with cosolvent or surfactant or cyclodextrin.
Setting [8] is: 10 mM acetate buffer, pH 5, aqueous buffer.

Compound `CC(=O)O[C@@]12CO[C@@H]1C[C@H](OC(=O)CCCN1CCN(C)CC1)[C@@]1(C)C(=O)[C@H](O)C3=C(C)[C@@H](OC(=O)[C@H](O)[C@@H](NC(=O)OC(C)(C)C)c4ccccc4)C[C@@](O)([C@@H](OC(=O)c4ccccc4)C12)C3(C)C` (stereo partly drawn) [TD10, 7-O-(N-methyl-piperazinylbutanoic acid ester)] gave a solubility in data set [1] (pH 5, aqueous buffer) of 3000 µg/mL (≈ 3070 µM).

Consider `C[C@@H]1C[C@H]2[C@@H]3CCC4=CC(=O)C=C[C@]4(C)[C@@]3(F)[C@@H](O)C[C@]2(C)[C@@]1(O)C(=O)CO` [Dexamethasone], for which the “Solubility in Water” value in data set [2] was 89 µg/mL (≈ 227 µM).

For the compound `CC(=O)O[C@@]12CO[C@@H]1C[C@H](O)[C@@]1(C)C(=O)[C@H](O)C3=C(C)[C@@H](OC(=O)[C@H](OC(=O)CN4CCCCC4)[C@@H](NC(=O)OC(C)(C)C)c4ccccc4)C[C@@](O)([C@@H](OC(=O)c4ccccc4)C12)C3(C)C` (stereo partly drawn) [TD8, Piperidinyl acetic acid ester], the “Prodrug levels (% remaining), pH 4” value in data set [3] is reported as 78%. Also, in data set [4], the “Prodrug levels (% remaining), Plasma” value stood at 4%. In data set [1] (pH 5, aqueous buffer), this compound registered a solubility of 500 µg/mL (≈ 536 µM). For the same compound, in data set [5], the “Prodrug levels (% remaining), pH 7.4” value came to 36%.

With `CC(=O)O[C@@]12CO[C@@H]1C[C@H](O)[C@@]1(C)C(=O)[C@H](O)C3=C(C)[C@@H](OC(=O)[C@H](OC(=O)CN4CCN(C)CC4)[C@@H](NC(=O)OC(C)(C)C)c4ccccc4)C[C@@](O)([C@@H](OC(=O)c4ccccc4)C12)C3(C)C` (stereo partly drawn) [TD2, N-methyl-piperazinyl acetic acid ester], the “Prodrug levels (% remaining), pH 4” value in data set [3] worked out at 99%. In addition, the “Prodrug levels (% remaining), Plasma” value in data set [4] came to 31%. In data set [6], the “in vitro retention / release rate in DSPC/chol LN relative to TD1” value is “released at a slightly faster rate”. The values for the solubility in data set [1] (setting [7]) and in data set [1] (setting [8]) were 25000 µg/mL (≈ 26400 µM) and 2000 µg/mL (≈ 2110 µM), respectively. In addition, in data set [5], the “Prodrug levels (% remaining), pH 7.4” value was 59%.

Regarding `CC(=O)O[C@@]12CO[C@@H]1C[C@H](O)[C@@]1(C)C(=O)[C@H](O)C3=C(C)[C@@H](OC(=O)[C@H](OC(=O)CCCCN4CCN(C)CC4)[C@@H](NC(=O)OC(C)(C)C)c4ccccc4)C[C@@](O)([C@@H](OC(=O)c4ccccc4)C12)C3(C)C` (stereo partly drawn) [TD3, N-methyl-piperazinyl pentanoic acid ester], the “Prodrug levels (% remaining), pH 4” value in data set [3] is given as 99%. The “Prodrug levels (% remaining), Plasma” value in data set [4] was 29%. The “in vitro retention / release rate in DSPC/chol LN relative to TD1” value in data set [6] is on record as “released at a slightly faster rate”. Besides, the solubility in data set [1] (setting [7]) came out at 4100 µg/mL (≈ 4140 µM); in data set [1] (setting [8]) it was 2500 µg/mL (≈ 2520 µM). The “Prodrug levels (% remaining), pH 7.4” value in data set [5] is reported as 69%.

Turning to `CC(C)c1cccc(C(C)C)c1O` [Propofol], in data set [2], the “Solubility in Water” value is 124 µg/mL (≈ 696 µM).

In the case of `CC(C)CN(C[C@@H](O)[C@H](Cc1ccccc1)NC(=O)O[C@H]1CCOC1)S(=O)(=O)c1ccc(N)cc1` [Amprenavir], in data set [2], the “Solubility in Water” value is 36 µg/mL (≈ 71.2 µM).

For `CCCCC(=O)OCC(=O)[C@]1(O)Cc2c(O)c3c(c(O)c2[C@@H](O[C@H]2C[C@H](NC(=O)C(F)(F)F)[C@H](O)[C@H](C)O2)C1)C(=O)c1c(OC)cccc1C3=O` [Valrubicin], in data set [2], the “Solubility in Water” value is “insoluble”.

For `C=C1/C(=C\C=C2/CCC[C@]3(C)[C@@H]([C@H](C)/C=C/[C@H](C)C(C)C)CC[C@@H]23)C[C@@H](O)C[C@@H]1O` [Doxercalciferol], the “Solubility in Water” value in data set [2] is given as “relatively insoluble”.

As to `C=CC[C@@H]1/C=C(\C)C[C@H](C)C[C@H](OC)[C@H]2O[C@@](O)(C(=O)C(=O)N3CCCC[C@H]3C(=O)O[C@H](/C(C)=C/[C@@H]3CC[C@@H](O)[C@H](OC)C3)[C@H](C)[C@@H](O)CC1=O)[C@H](C)C[C@@H]2OC` [Tacrolimus], the “Solubility in Water” value in data set [2] was “insoluble”.

Turning to `CC(=O)O[C@@]12CO[C@@H]1C[C@H](O)[C@@]1(C)C(=O)[C@H](O)C3=C(C)[C@@H](OC(=O)[C@H](OC(=O)CCCN4CCOCC4)[C@@H](NC(=O)OC(C)(C)C)c4ccccc4)C[C@@](O)([C@@H](OC(=O)c4ccccc4)C12)C3(C)C` (stereo partly drawn) [TD4, Morpholino butanoic acid ester], the “Prodrug levels (% remaining), pH 4” value in data set [3] was determined as 98%. The “Prodrug levels (% remaining), Plasma” value in data set [4] was determined as 64%. This compound displayed a solubility in data set [1] (setting [8]) of 120 µg/mL (≈ 125 µM). In data set [1] (pH 5, no ethanol, kinetic solubility), the “Solub. in 10 mM acetate pH 5” value was “extremely low solubility”. For the same compound, the “Prodrug levels (% remaining), pH 7.4” value in data set [5] is on record as 92%.

For `C[C@@H]1[C@H](O)[C@@H](C)/C=C/C=C/C=C/C=C/C=C/C=C/C=C/[C@H](O[C@@H]2O[C@H](C)[C@@H](O)[C@H](N)[C@@H]2O)C[C@@H]2O[C@](O)(C[C@@H](O)C[C@@H](O)[C@H](O)CC[C@@H](O)C[C@@H](O)CC(=O)O[C@H]1C)C[C@H](O)[C@H]2C(=O)O` [Amphotericin B], the “Solubility in Water” value in data set [2] is 750 µg/mL (≈ 812 µM).

Turning to `C[C@]12C=CC(=O)C=C1CC[C@@H]1[C@@H]2C(=O)C[C@@]2(C)[C@H]1CC[C@]2(O)C(=O)CO` [Prednisone], the “Solubility in Water” value in data set [2] is 312 µg/mL (≈ 870 µM).

Turning to `CC(=O)O[C@@]12CO[C@@H]1C[C@H](O)[C@@]1(C)C(=O)[C@H](O)C3=C(C)[C@@H](OC(=O)[C@H](OC(=O)CCN4CCOCC4)[C@@H](NC(=O)OC(C)(C)C)c4ccccc4)C[C@@](O)([C@@H](OC(=O)c4ccccc4)C12)C3(C)C` (stereo partly drawn) [TD6, Morpholino propionic acid ester], the “Prodrug levels (% remaining), pH 4” value in data set [3] is 68%. In addition, the “Prodrug levels (% remaining), Plasma” value in data set [4] worked out at 0%. For the same compound, the solubility in data set [1] (setting [7]) was 1500 µg/mL (≈ 1580 µM); in data set [1] (setting [8]) it was 480 µg/mL (≈ 506 µM). For the same compound, in data set [5], the “Prodrug levels (% remaining), pH 7.4” value is reported as 18%.

For `CC(=O)O[C@@]12CO[C@@H]1C[C@H](O)[C@@]1(C)C(=O)[C@H](O)C3=C(C)[C@@H](OC(=O)[C@H](OC(=O)CCCN4CCCCC4)[C@@H](NC(=O)OC(C)(C)C)c4ccccc4)C[C@@](O)([C@@H](OC(=O)c4ccccc4)C12)C3(C)C` (stereo partly drawn) [TD7, Piperidinyl butanoic acid ester], in data set [3], the “Prodrug levels (% remaining), pH 4” value is 94%. The “Prodrug levels (% remaining), Plasma” value in data set [4] is recorded as 8%. Further, the “in vitro retention / release rate in DSPC/chol LN relative to TD1” value in data set [6] is reported as “released at a rate mirroring that of TD1”. Also, the concentration in solution in data set [1] (pH 5, aqueous buffer) (solubility) came to 1900 µg/mL (≈ 1980 µM). For the same compound, the “Prodrug levels (% remaining), pH 7.4” value in data set [5] came out at 13%.

As to `CO[C@H]1C[C@@H]2CC[C@@H](C)[C@@](O)(O2)C(=O)C(=O)N2CCCC[C@H]2C(=O)O[C@H]([C@H](C)C[C@@H]2CC[C@@H](O)[C@H](OC)C2)CC(=O)[C@H](C)/C=C(\C)[C@@H](O)[C@@H](OC)C(=O)[C@H](C)C[C@H](C)/C=C/C=C/C=C/1C` [Sirolimus], in data set [2], the “Solubility in Water” value was “insoluble in water”.

On to `CC(=O)O[C@@]12CO[C@@H]1C[C@H](O)[C@@]1(C)C(=O)[C@H](O)C3=C(C)[C@@H](OC(=O)[C@H](OC(=O)CCCCN4CCCCC4)[C@@H](NC(=O)OC(C)(C)C)c4ccccc4)C[C@@](O)([C@@H](OC(=O)c4ccccc4)C12)C3(C)C` (stereo partly drawn) [TD9, Piperidinyl pentanoic acid ester], for which, in data set [3], the “Prodrug levels (% remaining), pH 4” value is recorded as 99%. For the same compound, the “Prodrug levels (% remaining), Plasma” value in data set [4] was “no effect”; in data set [4] (listed as TD-9), 60%. Besides, the solubility was determined as 1000 µg/mL (≈ 1030 µM) in data set [1] (pH 5, aqueous buffer) and 2300 µg/mL (≈ 2360 µM) in data set [1] (pH 5, aqueous with cosolvent or surfactant or cyclodextrin). Further, the “Prodrug levels (% remaining), pH 7.4” value in data set [5] came out at 65%.

In the case of `C[C@H](/C=C/[C@H](C)C(C)(C)O)[C@H]1CC[C@H]2/C(=C/C=C3C[C@@H](O)C[C@H](O)C3)CCC[C@]12C` [Paricalcitol], the “Solubility in Water” value in data set [2] was 6.8 µg/mL (≈ 16.3 µM).

As to `COc1c(C)c2c(c(O)c1C/C=C(\C)CCC(=O)O)C(=O)OC2` [Mycophenolic acid], the “Solubility in Water” value in data set [2] is “insoluble”.

On to `CC(=O)O[C@@]12CO[C@@H]1C[C@H](O)[C@@]1(C)C(=O)[C@H](O)C3=C(C)[C@@H](OC(=O)[C@H](OC(=O)CN4CCOCC4)[C@@H](NC(=O)OC(C)(C)C)c4ccccc4)C[C@@](O)([C@@H](OC(=O)c4ccccc4)C12)C3(C)C` (stereo partly drawn) [TD5, Morpholino acetic acid ester], for which the “Prodrug levels (% remaining), pH 4” value in data set [3] is listed as 81%. Besides, the “Prodrug levels (% remaining), Plasma” value in data set [4] is on record as 45%. For the same compound, the solubility was 300 µg/mL (≈ 321 µM) in data set [1] (setting [7]) and 140 µg/mL (≈ 150 µM) in data set [1] (setting [8]). Further, the “Prodrug levels (% remaining), pH 7.4” value in data set [5] amounted to 64%.
